Assay results from patent US7635675B2, “Micro-particle fatty acid salt solid dosage formulations for therapeutic agents” (Biocon Limited, priority 2003, dated 2009).

Assay: USP dissolution test of fatty acid salts released from tablets and capsules
Assay type: physicochemical
Conditions: tablet formulations where the fatty acids have been milled to optimum particle size (FIGS. 3-8); USP apparatus 2, 50 rpm, 500 mL pH 7.4 phosphate buffer
Procedure: The formulations of the invention preferably have a high dissolution rate. The dissolution rate can be determined as follows: Use USP dissolution apparatus 2 (paddles) at 50 rpm with 500 mL of pH 7.4 phosphate buffer.
USP 26, <711> DISSOLUTION Test Description:
This test is provided to determine compliance with the dissolution requirements where stated in the individual monograph for a tablet or capsule dosage form. Of the types of apparatus described therein, use apparatus 2. […] Where water or a medium with a pH of less than 6.8 is specified as the Medium in the individual monograph, the same Medium specified may be used with the addition of purified pepsin that results in an activity of 750,000 Units or less per 1000 mL. For media with a pH of 6.8 or greater, pancreatin can be added to produce not more than 1750 USP Units of protease activity per 1000 mL. USP Reference Standards <11> (Dissolution Calibrator, Disintegrating). (Dissolution Calibrator, nondisintegrating) are used to calibrate the equipment.
Apparatus 2: The assembly consists of the following: a covered vessel made of glass or other inert, transparent material; a motor; a metallic drive shaft; and a stirring element. The vessel is partially immersed in a suitable water bath of any convenient size or placed in a heating jacket. […]

dissolution (release) of fatty acid salt from tablet formulations | Compound
readily released | CCCCCCCCCCCC(=O)[O-].[Na+] [lauric acid sodium salt]
readily released | CCCCCCCCCC(=O)[O-].[Na+] [capric acid sodium salt]
